Test results taken from patent US11168073B2, “3,3-difluoroallylamines or salts thereof and pharmaceutical compositions comprising the same” (YUHAN CORPORATION, priority 2018, dated 2021).
Where a name gives a salt, the structure may show the parent alone. Read-outs that look alike come from different tables or passages of the source.

Key:
Format in all cases: biochemical
[1] = biological target: T1, recombinant human MAO-B (monoamine oxidase-B) (Homo sapiens, UniProt P27338); assay: Activity evaluation on recombinant human MAO-B (Amplex Red/HRP-coupled assay, 1 mM benzylamine substrate); details: read-out: Inhibitory Activity (IC50, nM) MAO-B
T1 construct: purchased Sigma-Aldrich
T1 sequence (P27338 1-520): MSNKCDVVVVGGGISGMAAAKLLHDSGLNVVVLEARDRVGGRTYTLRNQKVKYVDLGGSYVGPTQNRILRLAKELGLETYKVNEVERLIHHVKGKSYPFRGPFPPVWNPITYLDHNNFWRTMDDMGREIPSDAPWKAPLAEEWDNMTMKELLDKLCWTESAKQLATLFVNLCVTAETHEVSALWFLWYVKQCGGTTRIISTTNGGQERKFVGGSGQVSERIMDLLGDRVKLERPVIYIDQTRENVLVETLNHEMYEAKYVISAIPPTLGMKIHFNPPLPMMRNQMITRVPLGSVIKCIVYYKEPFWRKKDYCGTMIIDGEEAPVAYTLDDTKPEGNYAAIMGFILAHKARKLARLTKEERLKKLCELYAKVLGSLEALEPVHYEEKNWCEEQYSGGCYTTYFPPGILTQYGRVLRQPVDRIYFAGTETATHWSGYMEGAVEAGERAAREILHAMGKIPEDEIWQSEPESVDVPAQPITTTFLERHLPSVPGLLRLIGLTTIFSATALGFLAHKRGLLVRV
Procedure, shortened: (§1)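 Enzyme was preincubated with compounds (8-point 1:3 series, final DMSO <1%) 30 min at 37 °C in 50 mM sodium phosphate pH 7.4, then given 200 uM Amplex Red and 1 U/mL HRP with substrate. H2O2-derived resorufin fluorescence (ex 544/em 590 nm) was followed over 1–2 h; IC50 came from 4-parameter logistic fits of signal-rate inhibition versus DMSO control.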

[2] = biological target: T2, recombinant human VAP-1 (Homo sapiens, UniProt Q16853); assay: Activity evaluation on recombinant human VAP-1 (Amplex Red/HRP-coupled hydrogen peroxide assay, benzylamine substrate); details: read-out: Inhibitory Activity (IC50, nM) human VAP-1
T2 construct: purchased R&D systems
T2 sequence (Q16853 1-763): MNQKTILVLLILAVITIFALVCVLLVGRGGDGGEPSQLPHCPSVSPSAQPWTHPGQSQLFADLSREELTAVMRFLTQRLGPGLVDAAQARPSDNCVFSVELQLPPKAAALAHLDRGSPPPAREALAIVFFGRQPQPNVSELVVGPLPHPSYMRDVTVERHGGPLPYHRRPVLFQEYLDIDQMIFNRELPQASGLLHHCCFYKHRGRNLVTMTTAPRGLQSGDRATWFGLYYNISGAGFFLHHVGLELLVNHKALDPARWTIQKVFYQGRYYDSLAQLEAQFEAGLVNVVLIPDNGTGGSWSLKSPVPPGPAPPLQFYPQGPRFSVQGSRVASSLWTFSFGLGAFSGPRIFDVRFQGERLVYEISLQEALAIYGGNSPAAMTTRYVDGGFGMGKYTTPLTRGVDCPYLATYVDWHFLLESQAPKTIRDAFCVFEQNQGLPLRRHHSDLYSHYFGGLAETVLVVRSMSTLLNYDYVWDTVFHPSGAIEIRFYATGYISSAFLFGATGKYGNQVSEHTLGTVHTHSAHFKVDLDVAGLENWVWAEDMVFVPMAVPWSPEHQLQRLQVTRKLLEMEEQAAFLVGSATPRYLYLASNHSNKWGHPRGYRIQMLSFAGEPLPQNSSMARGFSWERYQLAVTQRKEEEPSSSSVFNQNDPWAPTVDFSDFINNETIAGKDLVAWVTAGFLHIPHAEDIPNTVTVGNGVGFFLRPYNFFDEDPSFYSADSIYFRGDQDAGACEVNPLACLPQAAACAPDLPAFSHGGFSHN
Procedure, shortened: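 Recombinant human VAP-1 in 50 mM sodium phosphate pH 7.4 preincubated 30 min at 37 °C with compound (8-point 1:3 series, <1% DMSO), then 1 mM benzylamine, 200 uM Amplex Red, 1 U/mL HRP added. H2O2-derived resorufin fluorescence (ex 544/em 590) followed 1–2 h; IC50 from four-parameter fit of rate inhibition.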

[3] = biological target: T3, recombinant human DAO (diamine oxidase) (Homo sapiens, UniProt P19801); assay: Activity evaluation on recombinant human DAO (Amplex Red/HRP-coupled assay, 1 mM putrescine substrate); details: read-out: Inhibitory Activity (IC50, nM) DAO
T3 construct: purchased R&D systems
T3 sequence (P19801 20-751): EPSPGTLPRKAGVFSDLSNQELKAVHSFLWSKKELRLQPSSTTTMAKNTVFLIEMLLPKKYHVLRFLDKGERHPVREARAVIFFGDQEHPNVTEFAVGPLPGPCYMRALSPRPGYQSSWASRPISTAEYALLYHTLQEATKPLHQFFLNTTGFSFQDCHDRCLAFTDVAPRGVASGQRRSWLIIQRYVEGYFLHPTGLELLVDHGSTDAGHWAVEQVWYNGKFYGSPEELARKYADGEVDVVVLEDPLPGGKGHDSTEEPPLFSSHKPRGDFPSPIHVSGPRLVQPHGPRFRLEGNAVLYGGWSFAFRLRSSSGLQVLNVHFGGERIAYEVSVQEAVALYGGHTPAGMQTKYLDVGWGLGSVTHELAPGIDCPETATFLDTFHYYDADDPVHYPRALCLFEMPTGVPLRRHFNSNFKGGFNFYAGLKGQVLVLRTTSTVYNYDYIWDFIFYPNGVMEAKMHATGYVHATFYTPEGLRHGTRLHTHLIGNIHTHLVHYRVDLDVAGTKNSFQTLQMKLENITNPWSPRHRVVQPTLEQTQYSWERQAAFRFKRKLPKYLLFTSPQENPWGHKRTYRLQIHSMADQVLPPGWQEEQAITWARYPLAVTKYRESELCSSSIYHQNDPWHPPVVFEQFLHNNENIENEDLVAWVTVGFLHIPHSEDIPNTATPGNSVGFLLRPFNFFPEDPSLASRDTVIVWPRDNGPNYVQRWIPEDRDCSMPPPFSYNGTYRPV
Procedure, shortened: as §1

[4] = biological target: T4, recombinant human MAO-A (monoamine oxidase-A) (Homo sapiens, UniProt P21397); assay: Activity evaluation on recombinant human MAO-A (Amplex Red/HRP-coupled assay, 0.5 mM tyramine substrate); details: read-out: Inhibitory Activity (IC50, nM) MAO-A
T4 construct: purchased Sigma-Aldrich
T4 sequence (P21397 1-527): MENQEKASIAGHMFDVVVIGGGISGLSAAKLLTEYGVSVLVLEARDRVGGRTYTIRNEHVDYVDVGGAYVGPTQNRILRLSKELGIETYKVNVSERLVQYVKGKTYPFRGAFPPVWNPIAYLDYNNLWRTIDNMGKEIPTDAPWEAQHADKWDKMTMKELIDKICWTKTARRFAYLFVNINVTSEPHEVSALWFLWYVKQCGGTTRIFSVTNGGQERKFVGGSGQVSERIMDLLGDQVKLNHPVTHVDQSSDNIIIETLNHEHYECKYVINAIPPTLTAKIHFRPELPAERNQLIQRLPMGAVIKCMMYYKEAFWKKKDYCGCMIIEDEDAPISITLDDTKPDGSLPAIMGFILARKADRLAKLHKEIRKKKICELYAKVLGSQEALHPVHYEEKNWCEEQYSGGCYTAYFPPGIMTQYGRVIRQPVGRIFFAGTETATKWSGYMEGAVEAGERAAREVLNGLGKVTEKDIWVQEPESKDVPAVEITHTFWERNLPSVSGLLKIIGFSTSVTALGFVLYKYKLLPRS
Procedure, shortened: as §1

[5] = recombinant human VAP-1, 30 min preincubation at 37° C., 1 mM benzylamine
[6] = recombinant human VAP-1, benzylamine substrate

Cc1cc(-c2ccc(C(F)(F)F)nc2)cnc1-n1cnn(CC(CN)=C(F)F)c1=O [Example 70, 2-[2-(aminomethyl)-3,3-difluoro-allyl]-4-[3-methyl-5-[6-(trifluoromethyl)-3-pyridyl]-2-pyridyl]-1,2,4-triazol-3-one Trifluoroacetate]
IC50 ([1]; 1 mM benzylamine): 5800 nM
IC50 [2, 5]: 0.7 nM
IC50 ([3]; 1 mM putrescine): 1500 nM
IC50 ([4]; 0.5 mM tyramine): > 100000 nM

NCC(Cn1ncn(-c2cccc(-c3ccc4c(c3)OCO4)n2)c1=O)=C(F)F [Example 50, 2-[2-(aminomethyl)-3,3-difluoro-allyl]-4-[6-(1,3-benzodioxol-5-yl)-2-pyridyl]-1,2,4-triazol-3-one Trifluoroacetate]
IC50 ([1]; 1 mM benzylamine): 13000 nM
IC50 [2, 5]: 1.5 nM
IC50 ([3]; 1 mM putrescine): 1200 nM
IC50 ([4]; 0.5 mM tyramine): > 100000 nM

Cc1cc(-c2ccc3cc(Cn4cnn(CC(CN)=C(F)F)c4=O)sc3c2)cc2c1NC(=O)CC2 [Example 202, 6-[2-[[1-[2-(aminomethyl)-3,3-difluoro-allyl]-5-oxo-1,2,4-triazol-4-yl]methyl]benzothiophen-6-yl]-8-methyl-3,4-dihydro-1H-quinolin-2-one Trifluoroacetate]
IC50 ([1]; 1 mM benzylamine substrate): > 100000 nM
IC50 [2, 6]: 2 nM
IC50 ([3]; 1 mM putrescine substrate): 5600 nM
IC50 ([4]; 0.5 mM tyramine substrate): > 100000 nM

Cc1cc(C#Cc2ccc3c(n2)OCCN3)cnc1-n1cnn(CC(CN)=C(F)F)c1=O [Example 246, 2-[2-(aminomethyl)-3,3-difluoro-allyl]-4-[5-[2-(2,3-dihydro-1H-pyrido[2,3-b][1,4]oxazin-6-yl)ethynyl]-3-methyl-2-pyridyl]-1,2,4-triazol-3-one ditrifluoroacetate]
IC50 ([1]; 1 mM benzylamine substrate): 120000 nM
IC50 [2, 6]: 2.3 nM
IC50 ([3]; 1 mM putrescine substrate): 59000 nM
IC50 ([4]; 0.5 mM tyramine substrate): > 100000 nM

NCC(Cn1ncn(Cc2ccccc2-c2ccc(N3CCNCC3)cc2)c1=O)=C(F)F [Example 280, 2-[2-(aminomethyl)-3,3-difluoro-allyl]-4-[[2-(4-piperazin-1-ylphenyl)phenyl]methyl]-1,2,4-triazol-3-one Ditrifluoroacetate]
IC50 ([1]; 1 mM benzylamine substrate): > 100000 nM
IC50 [2, 6]: 2380 nM
IC50 ([3]; 1 mM putrescine substrate): > 100000 nM
IC50 ([4]; 0.5 mM tyramine substrate): > 100000 nM

CCn1cc(-c2ccc3sc(Cn4cnn(CC(CN)=C(F)F)c4=O)cc3c2)cn1 [Example 212, 2-[2-(aminomethyl)-3,3-difluoro-allyl]-4-[[5-(1-ethylpyrazol-4-yl)benzothiophen-2-yl]methyl]-1,2,4-triazol-3-one Trifluoroacetate]
IC50 ([1]; 1 mM benzylamine substrate): > 100000 nM
IC50 [2, 6]: 1.5 nM
IC50 ([3]; 1 mM putrescine substrate): 4320 nM
IC50 ([4]; 0.5 mM tyramine substrate): 79100 nM

Cc1cc(-n2cnn(CC(CN)=C(F)F)c2=O)cnc1-c1cc(C)c2c(c1)CCC(=O)N2 [Example 80, 6-[5-[1-[2-(aminomethyl)-3,3-difluoro-allyl]-5-oxo-1,2,4-triazol-4-yl]-3-methyl-2-pyridyl]-8-methyl-3,4-dihydro-1H-quinolin-2-one Trifluoroacetate]
IC50 ([1]; 1 mM benzylamine): 5300 nM
IC50 [2, 5]: 0.4 nM
IC50 ([3]; 1 mM putrescine): 36 nM
IC50 ([4]; 0.5 mM tyramine): > 100000 nM

CN(C)c1ccc(-c2ccc3sc(Cn4cnn(CC(CN)=C(F)F)c4=O)cc3c2)cn1 [Example 208, 2-[2-(aminomethyl)-3,3-difluoro-allyl]-4-[[5-[6-(dimethylamino)-3-pyridyl]benzothiophen-2-yl]methyl]-1,2,4-triazol-3-one Trifluoroacetate]
IC50 ([1]; 1 mM benzylamine substrate): 42400 nM
IC50 [2, 6]: 2.5 nM
IC50 ([3]; 1 mM putrescine substrate): > 100000 nM
IC50 ([4]; 0.5 mM tyramine substrate): 89900 nM

NCC(Cn1ncn(Cc2ccc(-c3cnc(N)nc3)s2)c1=O)=C(F)F [Example 116, 2-[2-(aminomethyl)-3,3-difluoro-allyl]-4-[[5-(2-aminopyrimidin-5-yl)-2-thienyl]methyl]-1,2,4-triazol-3-one Trifluoroacetate]
IC50 ([1]; 1 mM benzylamine): > 10000 nM
IC50 [2, 5]: 1.4 nM
IC50 ([3]; 1 mM putrescine): > 100000 nM
IC50 ([4]; 0.5 mM tyramine): > 100000 nM

Cc1cc(-c2ccc(N3CCNCC3)nc2)cnc1-n1cnn(CC(CN)=C(F)F)c1=O [Example 220, 2-[2-(aminomethyl)-3,3-difluoro-allyl]-4-[3-methyl-5-(6-piperazin-1-yl-3-pyridyl)-2-pyridyl]-1,2,4-triazol-3-one Ditrifluoroacetate]
IC50 ([1]; 1 mM benzylamine substrate): > 100000 nM
IC50 [2, 6]: 1.1 nM
IC50 ([3]; 1 mM putrescine substrate): 11000 nM
IC50 ([4]; 0.5 mM tyramine substrate): > 100000 nM

NCC(Cn1ncn(Cc2ccc(-c3cccc(N4CCNCC4)c3)s2)c1=O)=C(F)F [Example 107, 2-[2-(aminomethyl)-3,3-difluoro-allyl]-4-[[5-(3-piperazin-1-ylphenyl)-2-thienyl]methyl]-1,2,4-triazol-3-one Ditrifluoroacetate]
IC50 ([1]; 1 mM benzylamine): 46000 nM
IC50 [2, 5]: 3.5 nM
IC50 ([3]; 1 mM putrescine): 12000 nM
IC50 ([4]; 0.5 mM tyramine): > 100000 nM

NCC(Cn1ncn(-c2cccc(-c3cccc(N4CCNCC4)c3)n2)c1=O)=C(F)F [Example 216, 2-[2-(aminomethyl)-3,3-difluoro-allyl]-4-[6-(3-piperazin-1-ylphenyl)-2-pyridyl]-1,2,4-triazol-3-one Ditrifluoroacetate]
IC50 ([1]; 1 mM benzylamine substrate): > 100000 nM
IC50 [2, 6]: 1.3 nM
IC50 ([3]; 1 mM putrescine substrate): 63 nM
IC50 ([4]; 0.5 mM tyramine substrate): > 100000 nM
